Experimental findings from ChEMBL document CHEMBL3044841, “Synthesis and biological activities of Schiff bases of gabapentin with different aldehydes and ketones: a structureactivity relationship study” (Med Chem Res, 2012) are described below.

The test system of series [1] is Rattus norvegicus. As to the kind of experiment: Neurotoxicity in Rattus norvegicus Wistar (rat) assessed as minimal motor impairment at 100 mg/kg, po after 0.5 hr by rotorod test. On the set-up: dose 100 mg/kg, route oral. The following applies: in vivo. The series is classed as toxicity, organism-based. For orientation: Falling from the rotarod earlier than controls is read as motor impairment.

In series [2] the test system is Rattus norvegicus. The experiment in a line: Anticonvulsant activity in Rattus norvegicus Wistar (rat) assessed as protection against maximal electroshock-induced seizure at 100 mg/kg, po administered 30 min before electroshock measured for 2 min relative to control. Format: functional.
Series [3] concerns Radical scavenging activity. As to the kind of experiment: Antioxidant activity assessed as DPPH free radical scavenging activity at 100 ug/ml after 30 min relative to control. Format: functional. Background: DPPH is a stable violet radical that fades when it is reduced.
In series [4] the test system is Radical scavenging activity. The experiment in a line: Antioxidant activity assessed as DPPH free radical scavenging activity at 200 ug/ml after 30 min relative to control. Format: functional.
Series [5] deals with Rattus norvegicus. As to the kind of experiment: Neurotoxicity in Rattus norvegicus Wistar (rat) assessed as minimal motor impairment at 100 mg/kg, po after 2 hr by rotorod test. The series is classed as toxicity, organism-based. On the set-up: dose 100 mg/kg, route oral. The note with it: in vivo.
Series [6] has as its system Radical scavenging activity. The experiment in a line: Antioxidant activity assessed as DPPH free radical scavenging activity at 150 ug/ml after 30 min relative to control. The series is classed as functional.
Series [7] relates to Radical scavenging activity. The experiment in a line: Antioxidant activity assessed as DPPH free radical scavenging activity after 30 min. The series is classed as functional.
The subject of series [8] is Rattus norvegicus. The experiment in a line: Neurotoxicity in Rattus norvegicus Wistar (rat) assessed as minimal motor impairment at 100 mg/kg, po after 1 hr by rotorod test. The note with it: in vivo. On the set-up: dose 100 mg/kg, route oral. Format: toxicity, organism-based.
Series [9] concerns Rattus norvegicus. The experiment in a line: Neurotoxicity in Rattus norvegicus Wistar (rat) assessed as minimal motor impairment at 100 mg/kg, po after 4 hr by rotorod test. Format: toxicity, organism-based. Details: dose 100 mg/kg, route oral; call rule not given here. The note with it: in vivo.
Series [10] deals with Rattus norvegicus. As to the kind of experiment: Neurotoxicity in Rattus norvegicus Wistar (rat) assessed as minimal motor impairment at 100 mg/kg, po after 2 hr by rotorod test relative to control. The following applies: in vivo. Details: dose 100 mg/kg, route oral. Format: toxicity, organism-based.

Each structure is given as a SMILES string. In brackets after ≈: the same amount, converted by molar mass.

On to `O=C1NC(=O)C(c2ccccc2)(c2ccccc2)N1` [PHENYTOIN], for which the Activity entry with Rattus norvegicus [1] is recorded as “Non-toxic”; with Rattus norvegicus [2] it was 79.29%.

A word on the IC50: it is the concentration at which inhibition is half-maximal. Consider `C/C(=N\CC1(CC(=O)O)CCCCC1)c1cccnc1`, for which the Activity in [3] was 30.8%; in series [4], 51%; with Rattus norvegicus [5] it was “Non-toxic”; in series [6], 42.1%; in the series with Rattus norvegicus [1], “Non-toxic”; in the series with Rattus norvegicus [8], “Non-toxic”. Also, the Activity entry in the series on Rattus norvegicus [9] was “Non-toxic”; with Rattus norvegicus [2] it was 65.61%. Also, the IC50 in series [7] came to 198.2 µg/mL (≈ 722 µM).

As to `O=C(O)CC1(C/N=C/c2ccccc2)CCCCC1`, the results for the Activity in [3], in series [4] and in series [6] were 30.1%, 49.8% and 41.3%, respectively. The IC50 result in series [7] is on record as “Not Active”.

In the case of `O=C1O[C@H]([C@@H](O)CO)C(O)=C1O` [ASCORBIC ACID], the Activity in series [3] amounted to 74.1%; in series [4] it was 99.3%; in [6], 86.4%. The IC50 in series [7] is 8.6 µg/mL (≈ 48.8 µM).

As for `CCOc1ccc(/C=N/CC2(CC(=O)O)CCCCC2)cc1`, the Activity in series [3] turned out to be 55.6%; in [4] it was 74.5%; in [6] it was 66.4%. Moreover, in [7], the IC50 came out at 60.5 µg/mL (≈ 199 µM).

For the compound `C/C(=N\CC1(CC(=O)O)CCCCC1)c1c[nH]c2ccccc12`, the Activity in [3] is 32.7%; in series [4] it was 55.8%; in the series with Rattus norvegicus [5] it was “Non-toxic”; in series [6] it was 43.8%; in the series on Rattus norvegicus [10], 25%; in the series with Rattus norvegicus [1], “Non-toxic”. The Activity result was “Non-toxic” with Rattus norvegicus [8] and 24.63% in the series with Rattus norvegicus [2]. Further, in series [7], the concentration for half-maximal inhibition (IC50) was 175 µg/mL (≈ 560 µM).

`COc1ccc(/C=N/CC2(CC(=O)O)CCCCC2)cc1`: the Activity was determined as 49.6% in series [3], 69.5% in [4] and 59.8% in series [6]. In [7], the IC50 stood at 94.2 µg/mL (≈ 326 µM).

As for `CCOc1ccc(/C(C)=N/CC2(CC(=O)O)CCCCC2)cc1`, the Activity was 55.8% in series [3]; 74.6% in [4]; 66.7% in series [6]; 25% with Rattus norvegicus [10]; “Non-toxic” with Rattus norvegicus [1]; “Non-toxic” in the series on Rattus norvegicus [8]. Moreover, the Activity with Rattus norvegicus [2] came out at 12.74%. Further, in series [7], the IC50 worked out at 60.3 µg/mL (≈ 190 µM).

In the case of `C/C=N/CC1(CC(=O)O)CCCCC1`, the Activity came to 31.4% in series [3], 49.5% in series [4] and 41% in series [6]. Further, the IC50 result in series [7] is listed as “Not Active”.

Turning to `COc1cc(/C=N/CC2(CC(=O)O)CCCCC2)ccc1O`, the values for the Activity in series [3], in series [4] and in [6] were 57.2%, 78.2% and 64.9%, respectively. The IC50 in [7] was 59.6 µg/mL (≈ 195 µM).

`C=NCC1(CC(=O)O)CCCCC1`: the Activity amounted to 30.2% in [3], 48.9% in series [4] and 40.6% in series [6]. Further, in series [7], the half-maximal inhibitory concentration (IC50) entry is on record as “Not Active”.

For `C/C(=N\CC1(CC(=O)O)CCCCC1)c1ccc2ccccc2c1`, the Activity is 28.5% in [3]; 48.4% in [4]; 37.2% in series [6]; 25% with Rattus norvegicus [10]; “Non-toxic” in the series with Rattus norvegicus [1]; “Non-toxic” in the series with Rattus norvegicus [8]. The Activity in the series with Rattus norvegicus [2] was determined as 0.42%. Also, in series [7], the IC50 result was “Not Active”.

For the compound `O=C(O)CC1(C/N=C/c2ccc(F)cc2)CCCCC1`, the figures for the Activity in [3], in [4] and in series [6] were 44.7%, 62.8% and 53.8%, respectively. Besides, the IC50 in series [7] amounted to 130.5 µg/mL (≈ 471 µM).

`O=C(O)CC1(C/N=C/c2c(F)cccc2Cl)CCCCC1`: the Activity in series [3] worked out at 47.2%; in series [4], 69.1%; in series [6], 58%. Besides, in series [7], the IC50 came out at 104 µg/mL (≈ 334 µM).

As to `O=C(O)CC1(C/N=C/c2ccccc2O)CCCCC1`, the Activity in [3] was 51%; in series [4], 71.3%; in series [6] it was 60.6%. Also, the IC50 in [7] came to 80.5 µg/mL (≈ 292 µM).

`C/C(=N\CC1(CC(=O)O)CCCCC1)c1cccc(C#N)c1`: the Activity in series [3] is 30.6%; in series [4], 49.8%; in [6], 41%; in the series with Rattus norvegicus [10] it was 25%; in the series on Rattus norvegicus [1] it was “Non-toxic”; with Rattus norvegicus [8], “Non-toxic”. Besides, in the series on Rattus norvegicus [2], the Activity is recorded as 6.36%. The IC50 entry in series [7] is on record as “Not Active”.

Consider `O=C(O)CC1(C/N=C/c2ccccn2)CCCCC1`, for which the values for the Activity in [3], in series [4] and in [6] were 40%, 59.7% and 50.3%, respectively. The IC50 in series [7] was determined as 151.2 µg/mL (≈ 581 µM).

As for `O=C(O)CC1(C/N=C/c2ccccc2Cl)CCCCC1`, the Activity in [3] was determined as 45.1%; in series [4] it was 66.4%; in [6] it was 56.7%. Moreover, the IC50 in series [7] is 119.4 µg/mL (≈ 406 µM).

For `C/C(=N\CC1(CC(=O)O)CCCCC1)c1ccccn1`, the Activity in series [3] was 31.1%; in series [4], 51.6%; in the series with Rattus norvegicus [5] it was “Non-toxic”; in [6], 42.5%; in the series with Rattus norvegicus [1] it was “Non-toxic”; in the series with Rattus norvegicus [8] it was “Non-toxic”. Further, the Activity result is recorded as “Non-toxic” in the series on Rattus norvegicus [9] and 66.45% in the series on Rattus norvegicus [2]. Moreover, in series [7], the IC50 came to 194.8 µg/mL (≈ 710 µM).
